# Data published in patent publication US5244795A, “Processes for preparing cholesterol lowering compounds” (Merck & Co., Inc., priority 1992, dated 1993).
# Legend:
# Light stability = assay type: physicochemical
# Saccharomyces cerevisiae = assay: FISP disc diffusion assay; assay type: cell-based; parameters: key to zone quality qualifier: F: clear zone, fuzzy edges; S: slightly hazy zone (some growth observed throughout zone); H: hazy zone (considerable growth observed throughout zone); V: very hazy zone (zone of inhibition is barely discernable); R: zone displays a ring of resistant growth; no qualifier: clear zone throughout, sharp edges; conditions: 250 μg/ml in CH2Cl2
# From the text: (§1) The FISP assay employs disc diffusion susceptibility testing methods to generate a spectrum of activity against a panel of representative yeasts, filamentous fungi and bacteria.
# The yeasts employed in the assay are Saccharomyces cerevisiae, Candida albicans, Candida tropicalis, Candida rugosa, Brettanomyces bruxellensis, Torulospora hansenii, Candida guilliermondi, Candida pseudotropicalis, Torulopsis glabrata, Cryptococcus albidus, Cryptococcus laurentii and Kluyveromyces fragilis.
# (§2) For carrying out the assay, seeded assay plates are prepared in the following manner according to the type of assay strain.
# (§3) Inocula for yeasts and bacterial strains are prepared from overnight broth cultures then diluted into potato dextrose agar to a final concentration of either 40 percent or 70 percent transmission at 660 nm.
# For three strains of Candida albicans and one strain of Saccharomyces cerevisiae, sterile saline is employed in place of potato dextrose broth.
# (§4) Assay plates for the yeasts and filamentous fungi are prepared by diluting the inoculum into appropriate molten agar medium, cooled to 45° C. to obtain a final concentration of 4 percent.
# (§5) The seeded agar media thus prepared are dispensed into petri dishes for assays (11 ml per dish).
# (§6) The samples to be tested for production of antifungal agent are applied to 6.2 mm filter paper discs (25 μl/disc) and air dried at 24° C. When the sample to be tested is crude broth, it may be centrifuged prior to application. The discs bearing the material to be tested are then applied employing sterile conditions to the seeded assay plates. The assay plates are then incubated at either 28° C. or 37° C. for 24 hours. In one of the assays for Bacillus subtilis, the sample is applied to a disc previously impregnated with 4M potassium chloride at 25 μl/disc and then air dried.
# (§7) Following incubation, the inhibition zones are measured and recorded. The measurements are made from the extreme edge where growth differs from the background zone. The zones are noted as to appearance as fuzzy edge and clear center, hazy throughout, slightly hazy, very hazy or ringed.
# (§8) FISP data is reported as the diameter (in mm.) of the zone of inhibition of growth in agar diffusion assays. The zone is determined by measuring growth that differs from the background lawn. A qualifier is also added to describe the zone quality as listed below: no qualifier: clear zone throughout, sharp edges
# Ustilago maydis = assay: FISP disc diffusion assay; assay type: cell-based; parameters: key: F: clear zone, fuzzy edges; S: slightly hazy zone (some growth observed throughout zone); H: hazy zone (considerable growth observed throughout zone); V: very hazy zone (zone of inhibition is barely discernable); R: zone displays a ring of resistant growth; no qualifier: clear zone throughout, sharp edges; conditions: 250 μg/ml in CH2Cl2
# From the text: as §1
# (§9) The filamentous fungi used in the assay were Penicillium sp. Aspergillus niger, Trichoderma sp., Phoma sp., Trichoderma lignorum, Fusarium oxysporum, Ustilago maydis, Ceratocystis ulmi, Alternaria soloni, Verticillium serrae, Botrytis allii, Scopulariopsis communis, Cephalosporium sp., Cercospora beticola, Rhizomucor miehei, Aspergillus flavus and Aspergillus fumigatus.
# as §2
# (§10) Inocula for filamentous fungi are prepared by scraping the surface of stock plates maintained on potato dextrose agar with a moistened sterile dacron swab. The spores and mycelia are then suspended in 10 milliliters of sterile potato dextrose broth and adjusted to 65 percent transmission at 660 nm.
# as §4, §5, §6, §7, §8
# Cephalosporium sp. = assay: FISP disc diffusion assay; assay type: cell-based; parameters: key: F: clear zone, fuzzy edges; S: slightly hazy zone (some growth observed throughout zone); H: hazy zone (considerable growth observed throughout zone); V: very hazy zone (zone of inhibition is barely discernable); R: zone displays a ring of resistant growth; no qualifier: clear zone throughout, sharp edges; conditions: 250 μg/ml in CH2Cl2
# From the text: as §1, §9, §2, §10, §4, §5, §6, §7, §8
# Trichoderma sp. = assay: FISP disc diffusion assay; assay type: cell-based; parameters: key: F: clear zone, fuzzy edges; S: slightly hazy zone (some growth observed throughout zone); H: hazy zone (considerable growth observed throughout zone); V: very hazy zone (zone of inhibition is barely discernable); R: zone displays a ring of resistant growth; no qualifier: clear zone throughout, sharp edges; conditions: 250 μg/ml in CH2Cl2
# From the text: as §1, §9, §2, §10, §4, §5, §6, §7, §8
# Botrytis allii = assay: FISP disc diffusion assay; assay type: cell-based; parameters: key: F: clear zone, fuzzy edges; S: slightly hazy zone (some growth observed throughout zone); H: hazy zone (considerable growth observed throughout zone); V: very hazy zone (zone of inhibition is barely discernable); R: zone displays a ring of resistant growth; no qualifier: clear zone throughout, sharp edges; conditions: 250 μg/ml in CH2Cl2
# From the text: as §1, §9, §2, §10, §4, §5, §6, §7, §8
# Phoma sp. = assay: FISP disc diffusion assay; assay type: cell-based; parameters: key: F: clear zone, fuzzy edges; S: slightly hazy zone (some growth observed throughout zone); H: hazy zone (considerable growth observed throughout zone); V: very hazy zone (zone of inhibition is barely discernable); R: zone displays a ring of resistant growth; no qualifier: clear zone throughout, sharp edges; conditions: 250 μg/ml in CH2Cl2
# From the text: as §1, §9, §2, §10, §4, §5, §6, §7, §8
# Aspergillus flavus = assay: FISP disc diffusion assay; assay type: cell-based; parameters: key: F: clear zone, fuzzy edges; S: slightly hazy zone (some growth observed throughout zone); H: hazy zone (considerable growth observed throughout zone); V: very hazy zone (zone of inhibition is barely discernable); R: zone displays a ring of resistant growth; no qualifier: clear zone throughout, sharp edges; conditions: 250 μg/ml in CH2Cl2
# From the text: as §1, §9, §2, §10, §4, §5, §6, §7, §8
# Cercospora beticola = assay: FISP disc diffusion assay; assay type: cell-based; parameters: key: F: clear zone, fuzzy edges; S: slightly hazy zone (some growth observed throughout zone); H: hazy zone (considerable growth observed throughout zone); V: very hazy zone (zone of inhibition is barely discernable); R: zone displays a ring of resistant growth; no qualifier: clear zone throughout, sharp edges; conditions: 250 μg/ml in CH2Cl2
# From the text: as §1, §9, §2, §10, §4, §5, §6, §7, §8
# Fusarium oxysporum = assay: FISP disc diffusion assay; assay type: cell-based; parameters: key: F: clear zone, fuzzy edges; S: slightly hazy zone (some growth observed throughout zone); H: hazy zone (considerable growth observed throughout zone); V: very hazy zone (zone of inhibition is barely discernable); R: zone displays a ring of resistant growth; no qualifier: clear zone throughout, sharp edges; conditions: 250 μg/ml in CH2Cl2
# From the text: as §1, §9, §2, §10, §4, §5, §6, §7, §8
# Verticillium serrae = assay: FISP disc diffusion assay; assay type: cell-based; parameters: key: F: clear zone, fuzzy edges; S: slightly hazy zone (some growth observed throughout zone); H: hazy zone (considerable growth observed throughout zone); V: very hazy zone (zone of inhibition is barely discernable); R: zone displays a ring of resistant growth; no qualifier: clear zone throughout, sharp edges; conditions: 250 μg/ml in CH2Cl2
# From the text: as §1, §9, §2, §10, §4, §5, §6, §7, §8
# Aspergillus fumigatus = assay: FISP disc diffusion assay; assay type: cell-based; parameters: key: F: clear zone, fuzzy edges; S: slightly hazy zone (some growth observed throughout zone); H: hazy zone (considerable growth observed throughout zone); V: very hazy zone (zone of inhibition is barely discernable); R: zone displays a ring of resistant growth; no qualifier: clear zone throughout, sharp edges; conditions: 250 μg/ml in CH2Cl2
# From the text: as §1, §9, §2, §10, §4, §5, §6, §7, §8
# Bacillus subtilis = assay: FISP disc diffusion assay; assay type: cell-based; conditions: 250 μg/ml in CH2Cl2
# Procedure: as §1
# The bacteria employed in the assay are Streptomyces sp., Acholeplasma laidlawii and Bacillus subtilis.
# as §2, §3
# Seeded agar for Bacillus subtilis are prepared from a commercially available spore suspension which is diluted directly into molten agar (45° C.) to obtain a final concentration of 0.1 percent.
# as §5
# The samples to be tested for production of antifungal agent are applied to 6.2 mm filter paper discs (25 μl/disc) and air dried at 24° C. When the sample to be tested is crude broth, it may be centrifuged prior to application. […]
# Following incubation, the inhibition zones are measured and recorded. […]
# FISP data is reported as the diameter (in mm.) of the zone of inhibition of growth in agar diffusion assays. The zone is determined by measuring growth that differs from the background lawn. […]
smiles,measurement,setting,value
CC(/C=C/C=C(\C)C(O)C(C)C(=O)O[C@H]1C[C@H](C)C=C2C=C[C@@]3(C)O[C@@H](O)CC(=O)[C@]3(C)[C@H]21)=C\C=C\C(=O)O (some centres unmarked) [Compound A],stability,Light stability; isolated and worked with in the absence of light,stable when isolated and worked with in the absence of light
same,light sensitivity,Light stability; light,light sensitive
same,zone quality qualifier,Saccharomyces cerevisiae,H
same,zone quality qualifier,Saccharomyces cerevisiae; YNB,H
same,zone of inhibition at 250 µg/mL,"Saccharomyces cerevisiae; Saccharomyces cerevisiae, read-out: diameter of the zone of inhibition of growth",0 mm
same,zone quality qualifier,Ustilago maydis,V
same,zone quality qualifier,Cephalosporium sp.,F
same,zone quality qualifier,Trichoderma sp.,S
same,zone quality qualifier,Botrytis allii,S
same,zone quality qualifier,Phoma sp.,S
same,zone quality qualifier,Aspergillus flavus,H
same,zone quality qualifier,Cercospora beticola,S
same,zone quality qualifier,Fusarium oxysporum,S
same,zone quality qualifier,Verticillium serrae,S
same,zone quality qualifier,Aspergillus fumigatus,S
same,diameter of the zone of inhibition of growth,Bacillus subtilis; KCl (disc impregnated with 4M potassium chloride),0 mm
same,zone of inhibition at 250 µg/mL,"Bacillus subtilis; Bacillus subtilis, read-out: diameter of the zone of inhibition of growth",0 mm
